test: Absorption maximum of asymmetric sensitizers; assay type: physicochemical
Source text: The asymmetric sensitizers AS-02, AS-03, AS-04 and AS-05 were obtained using a similar preparation method. The asymmetric sensitizers AS-01 to AS-05 are given in Table 2 together with their absorption maximum (Abs.Max (nm)) and their melting point (° C.).

Compound | Abs. Max [nm]
CCCCC(CC)COc1c(OC)cc(/C=C/c2ccc(/C=C/c3cc(OC)c(OC(C)CC)c(OC)c3)cc2)cc1OC (centres unmarked) [AS-01] | 371
CCC(C)Oc1c(OC)cc(/C=C/c2ccc(/C=C/c3cc(OC)c(OC(CC)CC)c(OC)c3)cc2)cc1OC (centres unmarked) [AS-02] | 370
CCC(C)Oc1c(OC)cc(/C=C/c2ccc(/C=C/c3cc(OC)c(OC4CCCCC4)c(OC)c3)cc2)cc1OC (centres unmarked) [AS-03] | 371
CCC(C)Oc1c(OC)cc(/C=C/c2ccc(/C=C/c3cc(OC)c(OC4CCCC4)c(OC)c3)cc2)cc1OC (centres unmarked) [AS-04] | 371
CCC(C)Oc1c(OC)cc(/C=C/c2ccc(/C=C/c3cc(OC)c(OCCO)c(OC)c3)cc2)cc1OC (centres unmarked) [AS-05] | 371

From patent US20100190105A1, “LITHOGRAPHIC PRINTING PLATE PRECURSOR” (Agfa Graphics NV, priority 2007, published 2010)
